Where two headings read alike, the source gives them in different places. Each block holds one molecule with its values, some of them ahead of it.
Legend:
GTN-induced migraine = conditions: cited from earlier work
[1] = intranasal, formulations containing cyclodextrins, rabbits; cited from earlier work
allergic rhinitis = conditions: intranasal, humans; cited from earlier work
[2] = nasal spray, cited from earlier work
[3] = human, in vivo, inhaled or intranasal
Protocol: In this study, the fraction absorbed nasally was calculated by preventing absorption via the GI tract through the use of charcoal.

[4] = in vivo; cited from earlier work
[5] = cited from earlier work
[6] = rat, in vivo; cited from earlier work

Molecule: O=[N+]([O-])OCC(CO[N+](=O)[O-])O[N+](=O)[O-] [GTN, glyceryltrinitrate]
subjects with a history of migraine in whom migraine is expected to be induced (GTN-induced migraine; GTN challenge): 75%

Molecule: CN1C[C@H](C(=O)N[C@]2(C)O[C@@]3(O)[C@@H]4CCCN4C(=O)[C@H](Cc4ccccc4)N3C2=O)C[C@@H]2c3cccc4[nH]cc(c34)C[C@H]21 [dihydroergotamine]
Tmax, powder versus liquid formulations [1]: broadly comparable

Molecule: O=C(O)c1cc(=O)c2c(OCC(O)COc3cccc4oc(C(=O)O)cc(=O)c34)cccc2o1 [sodium cromoglycate]
effectiveness, powder versus solution formulation (allergic rhinitis): somewhat more effective

Molecule: CNS(=O)(=O)Cc1ccc2[nH]cc(CCN(C)C)c2c1 [sumatriptan]
time to reversal of GTN-induced excess of theta (more than 15%) after treatment (GTN-induced migraine; studies by others): ≤ 30 min

ratio of nasal absorption fraction to total bioavailability (BA) [3]: about 0.75
Molecule: CN(C)CCc1c[nH]c2ccc(C[C@H]3COC(=O)N3)cc12 [zolmitriptan]
fraction of nasal absorption ([2]; GI absorption prevented with charcoal): about 30%
total BA [2]: about 40%

Molecule: calcitonin
absorption, liquid versus powder formulations [4]: comparable

Molecule: elcatonin
bio-availability in vivo, powder formulation versus liquid [5]: greater bio-availability

Molecule: salmon calcitonin
Tmax, powder versus liquid formulations [6]: no apparent difference
